Like-named read-outs stand apart in the source and are kept apart here.
Key:
[1] = Solid state stability at 40° C./75% RH (HPLC and polymorphic form); format: physicochemical
Experimental: The solid state stabilities as shown in Tables 5 and 7 were measured using the following procedure. A preliminary HPLC method was developed to investigate the stability of the salt forms of compound 1. The HPLC conditions are listed below.

Water solubility = format: physicochemical
[2] = system: VEGF-stimulated receptor autophosphorylation; details: cited from earlier work
[3] = system: endothelial cell survival; details: cited from earlier work
tumor angiogenesis = details: in vivo; cited from earlier work
human xenograft tumors = details: in vivo; cited from earlier work

Solid state stability, polymorphic form found, T (1 week) close ([1]; bis-HBr salt) | Solid state stability, polymorphic form found, T (1 week) open ([1]; bis-HBr salt) | Solid state stability, polymorphic form found, T (4 week) close ([1]; bis-HBr salt) | Solid state stability, polymorphic form found, T (4 week) open ([1]; bis-HBr salt) | Solid state stability, polymorphic form found, T (6 week) close ([1]; bis-HBr salt) | Solid state stability, polymorphic form found, T (6 week) open ([1]; bis-HBr salt) | Solid state stability, polymorphic form found, T (0) ([1]; bis-HBr salt) | Solid state stability, polymorphic form found, T (1 week) close ([1]; bis-maleate salt) | Solid state stability, polymorphic form found, T (4 week) close ([1]; bis-maleate salt) | Solid state stability (HPLC %) T (6 week) close ([1]; bis-maleate salt) | Solid state stability, polymorphic form found, T (6 week) close ([1]; bis-maleate salt) | Solid state stability (HPLC %) T (0) ([1]; bis-maleate salt) | Solid state stability, polymorphic form found, T (0) ([1]; bis-maleate salt) | SMILES | further results
– | – | – | – | – | – | – | Form I | Form I | 99.9% | Form I | 99.9% | Form I | CNC(=O)c1c(C)oc2cc(Oc3ccnc4cc(OCCN5CCOCC5)ccc34)ccc12 [Bis-maleate Form I, N,2-dimethyl-6-[7-(2-morpholinoethoxy)quinolin-4-yloxy]benzofuran-3-carboxamide] | Solid state stability (HPLC %) T (1 week) close ([1]; bis-maleate salt): 99.9%; Solid state stability (HPLC %) T (1 week) open ([1]; bis-maleate salt): 99.9%; Solid state stability, polymorphic form found, T (1 week) open ([1]; bis-maleate salt): Form I; Solid state stability (HPLC %) T (4 week) close ([1]; bis-maleate salt): 99.9%; Solid state stability (HPLC %) T (4 week) open ([1]; bis-maleate salt): 99.9%; Solid state stability, polymorphic form found, T (4 week) open ([1]; bis-maleate salt): Form I; Solid state stability (HPLC %) T (6 week) open ([1]; bis-maleate salt): 99.8%; Solid state stability, polymorphic form found, T (6 week) open ([1]; bis-maleate salt): Form I; solubility (Water solubility; pH 3.6, read-out: Solubility): ≥ 150 mg/mL
– | – | – | – | – | – | – | Form III | Form III | 99.9% | Form III | 99.9% | Form III | CNC(=O)c1c(C)oc2cc(Oc3ccnc4cc(OCCN5CCOCC5)ccc34)ccc12 [Bis-maleate Form III, N,2-dimethyl-6-[7-(2-morpholinoethoxy)quinolin-4-yloxy]benzofuran-3-carboxamide] | solubility (Water solubility; pH 3.8, read-out: Solubility): ≥ 30 mg/mL

Further lines, the compound ahead of its results:

SMILES | Solid state stability, polymorphic form found, T (1 week) close ([1]; bis-HBr salt) | Solid state stability, polymorphic form found, T (1 week) open ([1]; bis-HBr salt) | Solid state stability, polymorphic form found, T (4 week) close ([1]; bis-HBr salt) | Solid state stability, polymorphic form found, T (4 week) open ([1]; bis-HBr salt) | Solid state stability, polymorphic form found, T (6 week) close ([1]; bis-HBr salt) | Solid state stability, polymorphic form found, T (6 week) open ([1]; bis-HBr salt) | Solid state stability, polymorphic form found, T (0) ([1]; bis-HBr salt) | Solid state stability, polymorphic form found, T (1 week) close ([1]; bis-maleate salt) | Solid state stability, polymorphic form found, T (4 week) close ([1]; bis-maleate salt) | Solid state stability (HPLC %) T (6 week) close ([1]; bis-maleate salt) | Solid state stability, polymorphic form found, T (6 week) close ([1]; bis-maleate salt) | Solid state stability (HPLC %) T (0) ([1]; bis-maleate salt) | Solid state stability, polymorphic form found, T (0) ([1]; bis-maleate salt) | further results
CNC(=O)c1c(C)oc2cc(Oc3ccnc4cc(OCCN5CCOCC5)ccc34)ccc12 [Bis-HBr Form I, N,2-dimethyl-6-[7-(2-morpholinoethoxy)quinolin-4-yloxy]benzofuran-3-carboxamide] | Form 1 | Form I & II | Form I & II | Form II | Form II | Form II | Form 1 | – | – | – | – | – | – | solubility (Water solubility; pH 3.4, read-out: Solubility): > 30 mg/mL
CNC(=O)c1c(C)oc2cc(Oc3ccnc4cc(OCCN5CCOCC5)ccc34)ccc12 [Bis-HBr Form II, N,2-dimethyl-6-[7-(2-morpholinoethoxy)quinolin-4-yloxy]benzofuran-3-carboxamide] | Form II | Form II | Form II | Form II | Form II | Form II | Form II | – | – | – | – | – | – | Solid state stability (HPLC %) T (1 week) close ([1]; bis-HBr salt): 98.70%; Solid state stability (HPLC %) T (1 week) open ([1]; bis-HBr salt): 98.61%; Solid state stability (HPLC %) T (4 week) close ([1]; bis-HBr salt): 98.66%; Solid state stability (HPLC %) T (4 week) open ([1]; bis-HBr salt): 98.62%; Solid state stability (HPLC %) T (6 week) close ([1]; bis-HBr salt): 98.61%; Solid state stability (HPLC %) T (6 week) open ([1]; bis-HBr salt): 98.49%; Solid state stability (HPLC %) T (0) ([1]; bis-HBr salt): 98.53%; solubility (Water solubility; pH 3.4): >30 mg/ml (pH 3.4)
CNC(=O)c1c(C)oc2cc(Oc3ccnc4cc(OCCN5CCOCC5)ccc34)ccc12 [compound 1, N,2-dimethyl-6-[7-(2-morpholinoethoxy)quinolin-4-yloxy]benzofuran-3-carboxamide] | – | – | – | – | – | – | – | – | – | – | – | – | – | blocking of VEGF-stimulated receptor autophosphorylation [2]: selectively blocks; blocking of endothelial cell survival [3]: selectively blocks; inhibition of tumor angiogenesis (tumor angiogenesis): significant inhibition; inhibition of the growth of human xenograft tumors (human xenograft tumors): significant inhibition

Reference: patent US7928226B2, “Salts and polymorphs of a VEGF-R inhibitor” (Agouron Pharmaceuticals Inc., priority 2005, dated 2011)
